Data set [1] can be described thus: Cellular uptake in human macrophages infected with amastigote form of Leishmania donovani MHOM/SD/LEM3427 at 80 uM measured after 6 hrs by Hoechst-33342 staining based epifluorescence microscopy. Type of data set: ADME, cell-based. Particulars: macrophage.
The test system of data set [2] is Leishmania donovani. Put plainly: Antileishmanial activity against amastigote form of Leishmania donovani MHOM/SD/LEM3427 infected in human macrophages assessed as phenotypic surface alterations by MGG-staining based analysis. Type of data set: functional.
Data set [3] is described as follows: Drug uptake in human macrophage cytoplasm infected with amastigote form of Leishmania donovani MHOM/SD/LEM3427 at 80 uM measured after 6 to 18 hrs by Hoechst-33342 staining based epifluorescence microscopy. Format: ADME.
The subject of data set [4] is Leishmania donovani. Put plainly: Antileishmanial activity against amastigote form of Leishmania donovani MHOM/SD/LEM3427 infected in human macrophages assessed as reduction in amastigote multiplication at 80 uM measured after 48 hrs. Type of data set: functional.
The subject of data set [5] is Leishmania donovani. As to the kind of experiment: Antileishmanial activity against amastigote form of Leishmania donovani MHOM/SD/LEM3427 infected in human macrophages assessed as reduction in macrophage infection at 80 uM measured after 48 hrs. Type of data set: functional.

Molecules are shown by their SMILES. Calls of active or inactive are those of the source. The calls are words filed in the database; no cut-off is given here.

`CC/N=c1\cc2oc3cc(NCC)c(C)cc3c(-c3ccccc3C(=O)OCC)c-2cc1C.Cl` [RHODAMINE 6G HYDROCHLORIDE]: the Drug uptake result in data set [1] and in data set [3] was “Active” each time. Moreover, the outcome in data set [2] was Active.
On to `O=C(O)c1cc(NC(=S)NCCCCCCO[C@@H]2O[C@@H]([C@H](O)CO)[C@H](O)[C@H]2O)ccc1-c1c2ccc(=O)cc-2oc2cc(O)ccc12`, for which the Drug uptake entry in data set [1] and in data set [3] was “Active” each time.
For `CC/N=c1/cc2oc3cc(NCC)c(C)cc3c(-c3ccccc3C(=O)NCCCCCCO[C@@H]3O[C@@H]([C@H](O)CO)[C@H](O)[C@H]3O)c-2cc1C.Cl`, the Drug uptake entry in data set [1] and in data set [3] was “Active” throughout. In addition, the result in data set [4] and in data set [5] was Active.

The values above are taken from ChEMBL document CHEMBL3875198, “Synthesis and biological properties of galactofuranosyl-containing fluorescent dyes” (Bioorg Med Chem Lett, 2017).
